Laboratory results: US20030165919A1, “Method for the analysis of exogenic and endogenic cell activiation based on measuring the aggregation of receptors” (priority 2000, published 2003)

Legend:
Type in all cases: cell-based
[1] = biological target: T1, CD11b and CD14 (Homo sapiens, UniProt P08571); assay: FRET flow cytometry: co-assembly of CD11b and CD14 on monocytes; details: for co-assembly of CD11b and CD14 (energy transfer between monoclonal antibodies): human monocytes in whole blood, stimulation with the substance alone, 37° C. 15 minutes
T1 construct: endogenous in cells; host or cells: human monocytes in heparinised whole blood (healthy donors and patients)
T1 sequence (P08571 20-345 limits assumed): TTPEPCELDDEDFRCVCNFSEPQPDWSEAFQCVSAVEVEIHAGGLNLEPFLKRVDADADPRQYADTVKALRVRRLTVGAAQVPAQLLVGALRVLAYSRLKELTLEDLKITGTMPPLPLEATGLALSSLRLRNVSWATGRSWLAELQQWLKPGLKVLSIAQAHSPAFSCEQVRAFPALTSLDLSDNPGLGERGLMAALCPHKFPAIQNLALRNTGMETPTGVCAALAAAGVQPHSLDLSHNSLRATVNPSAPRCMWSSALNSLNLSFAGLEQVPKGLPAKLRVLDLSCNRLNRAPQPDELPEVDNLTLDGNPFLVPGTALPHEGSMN
Procedure: (§1) Aliquots […] of whole blood were incubated with the following stimulatory compounds at 37° C. for 15 minutes: LPS of Salmonella minnesota (0.1-10 nM, Mw 10 kDa), ceramide (primarily stearic acid and nervonic acid) and sulfogalactosyl ceramide (SG-cer, […]), both of which tested LPS free in the LAL assay (Cer, 1 nM-5.5 mM), lysophosphatidyl choline (lyso-PC, 10 mM), phorbol-12-myristate-13-acetate (PMA, 1 mM), N-formyl-L-methionyl-L-leucyl-L-phenyl alamine (fMLP, 1 mM), PE, PC, PI and PS liposomes (10 mm) which had been prepared as described above. All reagents were obtained from Sigma. In addition, the cells were stimulated with HPS70 (7 nM), dHSP70 (7 nM) and SG-cer+dHSP70 (40 nM+7 nM). After incubation, the cells were washed with cold PBS containing 0.1% of NaN3. The synthetic LPS antagonist lipid IVa (“compound-406”, 1-400 ng/ml) and lipid A derived from E. coli (1-100 ng/ml) were made available by courtesy of Dr. S. Kusumoto. The cells were pre-incubated with the LPS antagonist at 37° C. for 15 minutes and then stimulated with LPS at the same temperature (without washing).
(§2) Whole blood cells which had been stimulated or washed ex vivo […] were incubated on ice for 15 minutes with saturation concentrations of monoclonal fluorochrom-conjugated or biotinylated antibodies. The monoclonal antibodies CD11a (clone 25.3.1), CD16a (clone 3G8). CD18 (clone 7E4), CD14 (clone RMO52), CD33 (clone My9-RD1). CD81 (clone Js64) were obtained as R-phyco-erythrine (R-PE) conjugates and CD25 (clone B1.49.9) in biotinylated form from Coulter/Immunotech (Krefeld, Germany). CD11b (clone d12), CD11c (clone S-HCL-3), CD36 (clone CB38), CD47 (clone B6H12), CD81 (clone JS-81) and (Cd55 (clone IA10) in biotinylated form and Streptavidin-R-PE were purchased from Becton/Dickinson/Pharningen (Heidelberg, Germany) CD18 (clone IB4) in biontinylated form and CD40 (clone EA-5) as R-PE conjugate were obtained from Alexis (Grünberg, Germany) and CD14 (clones ×8 and Uchml) and CD3 (clone Cris-7) in biotinylated form and Streptavidin-Cy5 (Sa-Cy5) from Dianova (Hamburg, Germany), CD32 (clone C1KM5) and CD64 (clone 10.1) were obtained as R-PE conjugates from Caltag (Burlingame, U.S.A.) and CD91 (clone 8G1) in biotinylated form from Proen (Heidelberg, Germany). A monoclonal anti-TLRA antibody (clone HTA125) was kindly provided by Dr. Kensuke. Since no energy transfer between the antibodies directed against the CD14/CD11a and CD14/CD11c pairs was detectable either on resting or on stimulated cells, these antibody combinations were not characterised further.
Lysis of erythrocytes and washing were carried out as described (Rothe et al., Thromb. Vasc. Biol. 16 (1996), 1437-1447). After the last washing step, the samples were divided and part of each sample incubated with a saturating amount of SA-Cy5 on ice for 15 minutes and washed before measuring.
For energy transfer experiments, […] aliquots of whole blood were treated with cholesterol/methyl cyclodextrine (C/C) (100 mg/ml/4.6 mg/ml) or 2-hydroxypropyl-β-cyclodextrine (0.15 mg/ml) at 37° C. for 30 minutes and then stimulated further with LPS (4 nM) or ceramide (40 nM) as described above. The energy transfer between CD14 and CD11b was measured.
A “FACSCalibur” flow cytometer (Becton Dickinson) equipped with an air-cooled 15 mW argon laser (excitation wavelength 488 nm), a diode laser (excitation wavelength […]) and standard filters [channel 1 (FITC): 530/30 nm band pass filter; channel 2 (R-PE being used as donor dye); 585/47 nm band pass filter; channel 3 (PerCP): pass having a length of >670 nm; and channel 4 (Cy5being used as recipient dye): 661/16 nm bad pass filter] was used. The Cellquest software (Becton Dickinson) was used for the measurements. […] Measurement was conducted without compensation. 50,000 leukocytes were required in the “list” modus, forward scattering (FSC) being used as a trigger signal. […]

[2] = biological target: T2, CD18(7E4)/CD14 (×8) (Homo sapiens, UniProt P08571); assay: FRET co-assembly of CD18 with CD14 on monocytes; details: LPS 4 nM, ceramide 40 nM, LTA 1 μg/ml, HSP70 7 nM; mean ± SD of 10 experiments; >5% = positive transfer
T2 construct: endogenous in cells; host or cells: human monocytes in whole blood
T2 sequence (P08571 20-345 limits assumed): T1 sequence (P08571 20-345 limits assumed)
Procedure: as §1
(§3) Whole blood cells which had been stimulated or washed ex vivo […] were incubated on ice for 15 minutes with saturation concentrations of monoclonal fluorochrom-conjugated or biotinylated antibodies. The monoclonal antibodies CD11a (clone 25.3.1), CD16a (clone 3G8). […]

[3] = biological target: T3, CD36/CD14 (×8) (Homo sapiens, UniProt P08571); assay: FRET co-assembly of CD36 with CD14 on monocytes; details: LPS 4 nM, ceramide 40 nM, LTA 1 μg/ml, HSP70 7 nM; mean ± SD of 10 experiments; >5% = positive transfer
T3 construct: endogenous in cells; host or cells: human monocytes in whole blood
T3 sequence (P08571 20-345 limits assumed): T1 sequence (P08571 20-345 limits assumed)
Procedure: as §1, §3

[4] = biological target: T4, CD55/CD14 (Uchm1) (Homo sapiens, UniProt P08571); assay: FRET co-assembly of CD55 with CD14 on monocytes; details: LPS 4 nM, ceramide 40 nM, LTA 1 μg/ml, HSP70 7 nM; mean ± SD of 10 experiments; >5% = positive transfer
T4 construct: endogenous in cells; host or cells: human monocytes in whole blood
T4 sequence (P08571 20-345 limits assumed): T1 sequence (P08571 20-345 limits assumed)
Procedure: as §1, §3

[5] = biological target: T5, CD81/CD14 (×8) (Homo sapiens, UniProt P08571); assay: FRET co-assembly of CD81 with CD14 on monocytes; details: LPS 4 nM, ceramide 40 nM, LTA 1 μg/ml, HSP70 7 nM, mean ± SD of 10 experiments; for energy transfer CD81 (JS-81)/CD14 (×8): CD81 clone JS-81; for energy transfer CD81 (Js64)/CD14 (×8): CD81 clone Js64
T5 construct: endogenous in cells; host or cells: human monocytes in whole blood (donors; also sepsis and CAD patients)
T5 sequence (P08571 20-345 limits assumed): T1 sequence (P08571 20-345 limits assumed)
Procedure: as §1
as §2, with “further. […]” for “further.”

[6] = biological target: T6, TLR-4/CD14 (×8) (Homo sapiens, UniProt P08571); assay: FRET co-assembly of TLR-4 with CD14 on monocytes; details: LPS 4 nM, ceramide 40 nM, LTA 1 μg/ml, HSP70 7 nM; mean ± SD of 10 experiments; >5% = positive transfer
T6 construct: endogenous in cells; host or cells: human monocytes in whole blood
T6 sequence (P08571 20-345 limits assumed): T1 sequence (P08571 20-345 limits assumed)
Procedure: as §1, §3

[7] = biological target: T7, CD32/CD14 (Uchm1) (Homo sapiens, UniProt P08571); assay: FRET co-assembly of CD32 with CD14 on monocytes; details: LPS 4 nM, ceramide 40 nM, LTA 1 μg/ml, HSP70 7 nM; mean ± SD of 10 experiments; >5% = positive transfer
T7 construct: endogenous in cells; host or cells: human monocytes in whole blood
T7 sequence (P08571 20-345 limits assumed): T1 sequence (P08571 20-345 limits assumed)
Procedure: as §1, §3

[8] = biological target: T8, CD64/CD14 (Uchm1) (Homo sapiens, UniProt P08571); assay: FRET co-assembly of CD64 with CD14 on monocytes; details: LPS 4 nM, ceramide 40 nM, LTA 1 μg/ml, HSP70 7 nM; mean ± SD of 10 experiments; >5% = positive transfer
T8 construct: endogenous in cells; host or cells: human monocytes in whole blood
T8 sequence (P08571 20-345 limits assumed): T1 sequence (P08571 20-345 limits assumed)
Procedure: as §1, §3

[9] = biological target: T9, CD47/CD14 (Uchm1) (Homo sapiens, UniProt P08571); assay: FRET co-assembly of CD47 with CD14 on monocytes; details: LPS 4 nM, ceramide 40 nM, LTA 1 μg/ml; mean ± SD of 10 experiments; >5% = positive transfer
T9 construct: endogenous in cells; host or cells: human monocytes in whole blood
T9 sequence (P08571 20-345 limits assumed): T1 sequence (P08571 20-345 limits assumed)
Procedure: as §1, §3

[10] = biological target: T10, CD16/CD14 (Uchm1) (Homo sapiens, UniProt P08571); assay: FRET co-assembly of CD16 with CD14 on monocytes; details: LPS 4 nM, ceramide 40 nM, LTA 1 μg/ml; mean ± SD of 10 experiments; >5% = positive transfer
T10 construct: endogenous in cells; host or cells: human monocytes in whole blood
T10 sequence (P08571 20-345 limits assumed): T1 sequence (P08571 20-345 limits assumed)
Procedure: as §1, §3

Substance	co-assembly of CD11b and CD14 (energy transfer between monoclonal antibodies) [1]	EC50 ([1]; human monocytes, FIG. 1b, read-out: EC50cer, ceramide-induced energy transfer between antibodies against CD11b and CD14 (clone ×8)) [nM]	energy transfer CD18(7E4)/CD14 (×8) [2] [%]	energy transfer CD36/CD14 (×8) [3] [%]	energy transfer CD55/CD14 (Uchm1) [4] [%]	energy transfer CD81 (JS-81)/CD14 (×8) [5] [%]	energy transfer CD81 (Js64)/CD14 (×8) [5] [%]	energy transfer TLR-4/CD14 (×8) [6] [%]	energy transfer CD32/CD14 (Uchm1) [7] [%]	energy transfer CD64/CD14 (Uchm1) [8] [%]	energy transfer CD47/CD14 (Uchm1) [9] [%]	energy transfer CD16/CD14 (Uchm1) [10] [%]
ceramide	induces the transfer of CD14 into a receptor cluster	~0.1	5.4 ± 0.8	10.1 ± 1.0	9.7 ± 1.5	3.1 ± 2.4	2.8 ± 0.7	3.2 ± 2.5	11.6 ± 3.4	10.4 ± 1.3	11.9 ± 3.1	3.2 ± 5.6
HSP70: Heat shock protein 70 obtained from Stressgen	induces clustering of CD11b and CD14	–	6.0 ± 2.1	8.2 ± 1.8	6.0 ± 0.5	1.0 ± 0.1	3.8 ± 2.5	5.4 ± 0.6	5.3 ± 2.1	10.1 ± 1.5	–	–
